The test system of the first experiment is LAB-1. Kind of experiment: Antibiotic sensitivity testing of LAB-1. The format is cell-based.
Details: not given
As for the experimental part:
A variety of biochemical tests were performed in order to identify the species and the genus of organism. The tests included: assessment of growth conditions, culture appearance, cell appearance and staining characteristics, optimal temperature and pH growth range, oxygen requirements, antibiotic sensitivity testing, tests for catalase and oxidase (using TAXOS N™ disks), amino acid utilization as carbon source, nitrogen fixation, motility test, and a variety of commercially available tests from MICRO-ID™, OXYFERM™, ENTEROTUBE™ and BIOLOG GN MICROPLATE™.
Take Neomycin: the “Antibiotic Susceptibility” value was “sensitive”. The same measure, in the same setting: to `[H]/N=C(/N)N[C@H]1[C@H](O)[C@@H](O)[C@H](O[C@@H]2O[C@@H](C)[C@](O)(C=O)[C@H]2O[C@@H]2O[C@@H](CO)[C@H](O)[C@@H](O)[C@@H]2NC)[C@@H](N/C(N)=N\[H])[C@@H]1O` [Streptomycin] belongs “resistant”. Still for that read-out and setting: as for Penicillin, the entry is “resistant”; as for `CC[C@H]1OC(=O)[C@H](C)[C@@H](O[C@H]2C[C@@](C)(OC)[C@@H](O)[C@H](C)O2)[C@H](C)[C@@H](O[C@@H]2O[C@H](C)C[C@H](N(C)C)[C@H]2O)[C@](C)(O)C[C@@H](C)C(=O)[C@H](C)[C@@H](O)[C@]1(C)O` [Erythromycin], “resistant”. Take `CO[C@@H]1[C@@H](OC(N)=O)[C@@H](O)[C@H](Oc2ccc3c(O)c(NC(=O)c4ccc(O)c(CC=C(C)C)c4)c(=O)oc3c2C)OC1(C)C` [Novobiocin]: the “Antibiotic Susceptibility” value was “sensitive”. As to Polymyxin B, the “Antibiotic Susceptibility” value was “sensitive”. With `NCC[C@H](O)C(=O)N[C@@H]1C[C@H](N)[C@@H](O[C@H]2O[C@H](CN)[C@@H](O)[C@H](O)[C@H]2O)[C@H](O)[C@H]1O[C@H]1O[C@H](CO)[C@@H](O)[C@H](N)[C@H]1O` [Amikacin], the “Antibiotic Susceptibility” value is on record as “sensitive”.

As for `CC1(C)S[C@@H]2[C@H](NC(=O)[C@H](N)c3ccccc3)C(=O)N2[C@H]1C(=O)O` [Ampicillin], the “Antibiotic Susceptibility” value was “resistant”.

The next experiment deals with LAB-1 strain. Kind of experiment: Inhibition of LAB-1 growth, cell attachment and biofilm production in growth media. In kind it is cell-based. The note with it: 0.1-1.0% (w/v) in liquid or solid growth media. The text has this:
It would be apparent to one of ordinary skill in the art to apply the above methods to inhibit the production of mucoid compounds and biofilm in any mucoid organism.
As to `CCC(=O)O` [propionic acid], the “growth, development, cell attachment and biofilm production of LAB-1” value is “differentially inhibits”.

For the molecule `CC(C)Cc1ccc(C(C)C(=O)O)cc1` (stereo not shown) [ibuprofen, 2-(4-isobutylphenyl)-propionic acid], the “growth, development, cell attachment and biofilm production of LAB-1” value was “differentially inhibits”.

Values taken from patent US20040229207A1 (priority 1999, published 2004).
